From US20260124293A1 (priority 2022, published 2026)

Test system: WT SARS-CoV-2 or OTS4-5-7-8 in VeroE6/TMPRSS2 cells
Format: cell-based

## CC(C)C(=O)OC[C@H]1O[C@@H](n2ccc(NO)nc2=O)[C@H](O)[C@@H]1O [molnupiravir]
  number of infectious virus particles in a TCID50 virus assay on adding a mutagen: reduced the number of infectious virus particles
